The record followed here is patent publication US8450319B2, “Pyrrolopyridazinone compound” (Ube Industries, Ltd., priority 2006, dated 2013).

The term melting point denotes the temperature of the solid-liquid transition.

Counter-ions that a name gives are not always drawn.

With `CCc1c(-c2ccc(OC(F)F)c(OCC3CC3)c2)[nH]c2cn[nH]c(=O)c12` (as salt: HCl) [Example 37, 2-(3-Cyclopropylmethoxy-4-difluoromethoxyphenyl)-3-ethyl-1,5-dihydropyrrolo[2,3-d]pyridazin-4-one HCl adduct], the melting point lay within 224 to 227 °C.

`Cc1c(-c2ccc(OC(F)F)c3c2C=CC(C)(C)O3)[nH]c2cn[nH]c(=O)c12` (as salt: HCl) [Example 53, 2-(8-Difluoromethoxy-2,2-dimethyl-2H-chromen-5-yl)-3-methyl-1,5-dihydropyrrolo[2,3-d]pyridazin-4-one HCl adduct] displayed a melting point of more than 300 °C.

`O=c1[nH]ncc2[nH]c(-c3ccc(OC(F)F)c(OC4CC4)c3)cc12` [Example 1, 2-(3-Cyclopropoxy-4-difluoromethoxyphenyl)-1,5-dihydropyrrolo[2,3-d]pyridazin-4-one] gave a melting point of 287 to 292 °C.

`O=c1[nH]ncc2[nH]c(-c3ccc(OC(F)F)c(OC4CC4)c3)c(Cl)c12` [Example 2, 3-Chloro-2-(3-cyclopropoxy-4-difluoromethoxyphenyl)-1,5-dihydropyrrolo[2,3-d]pyridazin-4-one] displayed a melting point of 281 to 283 °C.

As to `Cc1c(-c2ccc(OC(F)F)c(OC3CC3)c2)[nH]c2cn[nH]c(=O)c12` [Example 4, 2-(3-Cyclopropoxy-4-difluoromethoxyphenyl)-3-methyl-1,5-dihydropyrrolo[2,3-d]pyridazin-4-one], the melting point fell in the range of 245 to 246 °C.

With `CCCc1c(-c2ccc(OC(F)F)c(OC3CC3)c2)[nH]c2cn[nH]c(=O)c12` [Example 6, 2-(3-Cyclopropoxy-4-difluoromethoxyphenyl)-3-propyl-1,5-dihydropyrrolo[2,3-d]pyridazin-4-one], the melting point was in the range of 208 to 210 °C.

For `CC(C)c1c(-c2ccc(OC(F)F)c(OC3CC3)c2)[nH]c2cn[nH]c(=O)c12` [Example 7, 2-(3-Cyclopropoxy-4-difluoromethoxyphenyl)-3-isopropyl-1,5-dihydropyrrolo[2,3-d]pyridazin-4-one], the melting point lay within 265 to 267 °C.

Compound `O=c1[nH]ncc2[nH]c(-c3ccc(OC(F)F)c(OC4CC4)c3)c(CO)c12` [Example 10, 2-(3-Cyclopropoxy-4-difluoromethoxyphenyl)-3-hydroxymethyl-1,5-dihydropyrrolo[2,3-d]pyridazin-4-one] came in with a melting point of 190 to 191 °C.

`COCc1c(-c2ccc(OC(F)F)c(OC3CC3)c2)[nH]c2cn[nH]c(=O)c12` [Example 11, 2-(3-Cyclopropoxy-4-difluoromethoxyphenyl)-3-methoxymethyl-1,5-dihydropyrrolo[2,3-d]pyridazin-4-one] showed a melting point of 104 to 107 °C.

In the case of `O=c1[nH]ncc2[nH]c(-c3ccc(OC(F)F)c(OC4CC4)c3)c(-c3ccccc3)c12` [Example 17, 2-(3-Cyclopropoxy-4-difluoromethoxyphenyl)-3-phenyl-1,5-dihydropyrrolo[2,3-d]pyridazin-4-one], the melting point was in the range of 138 to 143 °C.

As for `O=c1[nH]ncc2[nH]c(-c3ccc(OC(F)F)c(OC4CC4)c3)c(-c3cn[nH]c3)c12` [Example 18, 2-(3-Cyclopropoxy-4-difluoromethoxyphenyl)-3-(4-pyrazolyl)-1,5-dihydropyrrolo[2,3-d]pyridazin-4-one], the melting point lay in the range of 294 to 297 °C.

Consider `O=c1[nH]ncc2[nH]c(-c3ccc(OC(F)F)c(OC4CC4)c3)c(CCc3ccccc3)c12` [Example 21, 2-(3-Cyclopropoxy-4-difluoromethoxyphenyl)-3-phenethyl-1,5-dihydropyrrolo[2,3-d]pyridazin-4-one], for which the melting point lay in the range of 199 to 201 °C.

Regarding `O=c1[nH]ncc2[nH]c(-c3ccc(OC(F)F)c(OC4CC4)c3)c(Cc3cccc(F)c3)c12` [Example 23, 2-(3-Cyclopropoxy-4-difluoromethoxyphenyl)-3-(3-fluorobenzyl)-1,5-dihydropyrrolo[2,3-d]pyridazin-4-one], the melting point lay within 208 to 210 °C.

On to `O=c1[nH]ncc2[nH]c(-c3ccc(OC(F)F)c(OC4CC4)c3)c(Cc3ccc(F)cc3)c12` [Example 24, 2-(3-Cyclopropoxy-4-difluoromethoxyphenyl)-3-(4-fluorobenzyl)-1,5-dihydropyrrolo[2,3-d]pyridazin-4-one], for which the melting point lay within 193 to 195 °C.

Consider `N#Cc1ccccc1Cc1c(-c2ccc(OC(F)F)c(OC3CC3)c2)[nH]c2cn[nH]c(=O)c12` [Example 25, 3-(2-Cyanobenzyl)-2-(3-cyclopropoxy-4-difluoromethoxyphenyl)-1,5-dihydropyrrolo[2,3-d]pyridazin-4-one], for which the melting point is more than 300 °C.

`N#Cc1cccc(Cc2c(-c3ccc(OC(F)F)c(OC4CC4)c3)[nH]c3cn[nH]c(=O)c23)c1` [Example 26, 3-(3-Cyanobenzyl)-2-(3-cyclopropoxy-4-difluoromethoxyphenyl)-1,5-dihydropyrrolo[2,3-d]pyridazin-4-one]: the melting point fell in the range of 130 to 135 °C.

The compound `O=C(O)c1cccc(Cc2c(-c3ccc(OC(F)F)c(OC4CC4)c3)[nH]c3cn[nH]c(=O)c23)c1` [Example 27, 3-(3-Carboxybenzyl)-2-(3-cyclopropoxy-4-difluoromethoxyphenyl)-1,5-dihydropyrrolo[2,3-d]pyridazin-4-one] registered a melting point of 155 to 163 °C.

Regarding `COc1cccc(Cc2c(-c3ccc(OC(F)F)c(OC4CC4)c3)[nH]c3cn[nH]c(=O)c23)n1` [Example 28, 2-(3-Cyclopropoxy-4-difluoromethoxyphenyl)-3-(6-methoxy-2-pyridylmethyl)-1,5-dihydropyrrolo[2,3-d]pyridazin-4-one], the melting point is 224 to 226 °C.

In turn, `O=c1[nH]ncc2[nH]c(-c3ccc(OC(F)F)c(OC4CCC4)c3)c(Cl)c12` [Example 32, 3-Chloro-2-(3-cyclobutoxy-4-difluoromethoxyphenyl)-1,5-dihydropyrrolo[2,3-d]pyridazin-4-one] registered a melting point of 273 to 275 °C.

`O=c1[nH]ncc2[nH]c(-c3ccc(OC(F)F)c(OCC4CC4)c3)cc12` [Example 35, 2-(3-Cyclopropylmethoxy-4-difluoromethoxyphenyl)-1,5-dihydropyrrolo[2,3-d]pyridazin-4-one] gave a melting point of 294 to 295 °C.

`CC(C)Oc1cc(-c2cc3c(=O)[nH]ncc3[nH]2)ccc1OC(F)F` [Example 39, 2-(4-Difluoromethoxy-3-isopropoxyphenyl)-1,5-dihydropyrrolo[2,3-d]pyridazin-4-one] came in with a melting point of 269 to 273 °C.

The compound `CC(C)Oc1cc(-c2[nH]c3cn[nH]c(=O)c3c2Cl)ccc1OC(F)F` [Example 40, 3-Chloro-2-(4-difluoromethoxy-3-isopropoxyphenyl)-1,5-dihydropyrrolo[2,3-d]pyridazin-4-one] came in with a melting point of 248 to 262 °C.

For `COc1ccc(-c2[nH]c3cn[nH]c(=O)c3c2Cl)cc1OC1CC1` [Example 42, 3-Chloro-2-(3-cyclopropoxy-4-methoxyphenyl)-1,5-dihydropyrrolo[2,3-d]pyridazin-4-one], the melting point lay within 293 to 294 °C.

Turning to `COc1ccc(-c2[nH]c3cn[nH]c(=O)c3c2Br)cc1OC1CC1` [Example 43, 3-Bromo-2-(3-cyclopropoxy-4-methoxyphenyl)-1,5-dihydropyrrolo[2,3-d]pyridazin-4-one], the melting point was 293 to 296 °C (dec.).

The compound `COc1ccc(-c2[nH]c3cn[nH]c(=O)c3c2Cl)cc1OC1CCC1` [Example 45, 3-Chloro-2-(3-cyclobutoxy-4-methoxyphenyl)-1,5-dihydropyrrolo[2,3-d]pyridazin-4-one] registered a melting point of 285 to 287 °C.

Regarding `COc1ccc(-c2cc3c(=O)[nH]ncc3[nH]2)cc1OC1CCCC1` [Example 46, 2-(3-Cyclopentoxy-4-methoxyphenyl)-1,5-dihydropyrrolo[2,3-d]pyridazin-4-one], the melting point is 290 °C (dec.).

As to `COc1ccc(-c2[nH]c3cn[nH]c(=O)c3c2Cl)cc1OCC1CC1` [Example 47, 3-Chloro-2-(3-cyclopropylmethoxy-4-methoxyphenyl)-1,5-dihydropyrrolo[2,3-d]pyridazin-4-one], the melting point is 256 to 258 °C.

As for `COc1ccc(-c2[nH]c3cn[nH]c(=O)c3c2Cl)cc1OC(C)C` [Example 48, 3-Chloro-2-(3-isopropoxy-4-methoxyphenyl)-1,5-dihydropyrrolo[2,3-d]pyridazin-4-one], the melting point lay within 291 to 299 °C.

As to `O=c1[nH]ncc2[nH]c(-c3ccc(OC(F)F)c(OC4CC4)c3)c(COCC3CC3)c12` [Example 59, 2-(3-Cyclopropoxy-4-difluoromethoxyphenyl)-3-cyclopropylmethoxymethyl-1,5-dihydropyrrolo[2,3-d]pyridazin-4-one], the melting point was 170 to 172 °C.

Consider `CCC(C)OCc1c(-c2ccc(OC(F)F)c(OC3CC3)c2)[nH]c2cn[nH]c(=O)c12` (stereo not shown) [Example 63, 3-(sec-Butoxymethyl)-2-(3-cyclopropoxy-4-difluoromethoxyphenyl)-1,5-dihydropyrrolo[2,3-d]pyridazin-4-one], for which the melting point fell in the range of 103 to 106 °C.

For `CC(C)(C)OCc1c(-c2ccc(OC(F)F)c(OC3CC3)c2)[nH]c2cn[nH]c(=O)c12` [Example 64, 3-(tert-Butoxymethyl)-2-(3-cyclopropoxy-4-difluoromethoxyphenyl)-1,5-dihydropyrrolo[2,3-d]pyridazin-4-one], the melting point was more than 300 °C.

`CCC(CC)OCc1c(-c2ccc(OC(F)F)c(OC3CC3)c2)[nH]c2cn[nH]c(=O)c12` [Example 65, 2-(3-Cyclopropoxy-4-difluoromethoxyphenyl)-3-(1-ethylpropoxymethyl)-1,5-dihydropyrrolo[2,3-d]pyridazin-4-one] registered a melting point of 133 to 162 °C.

For the compound `CCCCCc1c(-c2ccc(OC(F)F)c(OC3CC3)c2)[nH]c2cn[nH]c(=O)c12` [Example 68, 2-(3-Cyclopropoxy-4-difluoromethoxyphenyl)-3-pentyl-1,5-dihydropyrrolo[2,3-d]pyridazin-4-one], the melting point is 191 to 193 °C.

Take `O=c1[nH]ncc2[nH]c(-c3ccc(OC(F)F)c(OC4CC4)c3)c(CCC3CC3)c12` [Example 70, 2-(3-cyclopropoxy-4-difluoromethoxyphenyl)-3-(2-cyclopropylethyl)-1,5-dihydropyrrolo[2,3-d]pyridazin-4-one]: the melting point is 194 to 197 °C.
